According to publication PMC10096163, “Structural Insights and Intermolecular Energy for Some Medium and Long-Chain Testosterone Esters” (Molecules, 2023):
Converted amounts (≈) assume the structure as drawn. Like-named read-outs stand apart in the source and are kept apart here.

What was measured:
[1] = Solubility of esters in benzyl alcohol / benzyl benzoate / oil mixtures; assay type: physicochemical; conditions: for solubility: oil or lipid, thermodynamic from solid
Procedure: The esters’ solubility (mg/mL) was evaluated in mixtures which included different solvents and organic oils, such as medium-chain triglyceride (MCT), apricot, grape seed (GSO), castor, cottonseed, […] sesame oil.
The solutions contained mixtures of benzyl alcohol, benzyl benzoate and oil, with a volumetric ratio of 2% benzyl alcohol, 20% benzyl benzoate and 78% oil. Numerous pharmaceuticals of various lipophilic agents (various steroids were included) use benzyl benzoate as a co-solvent/solubilizer; benzyl alcohol behaves as well as a solvent and inhibits the microbial growth, and meanwhile the oils act as carriers.
In certain cases, an excess of raw samples remained undissolved (in suspension) and small quantities of mixtures were added, ensuring that the resulting solutions became homogenous, clear and transparent. Three measurements were taken to improve accuracy, and their average value was used.

[2] = parameters: method as in PMID 36295310; conditions: short esters, previously reported; cited from earlier work
[3] = cited from earlier work
[4] = 14 °C, 2% benzyl alcohol, 20% benzyl benzoate, 78% medium-chain triglyceride, 14 °C, average of three measurements, read-out: Solubility MCT
[5] = 14 °C, average over the six oil mixtures, 14 °C, read-out: Average solubility
[6] = benzyl alcohol / benzyl benzoate / apricot oil mixture, 14 °C, 2% benzyl alcohol, 20% benzyl benzoate, 78% apricot oil, 14 °C, average of three measurements, read-out: Solubility APRICOT
[7] = benzyl alcohol / benzyl benzoate / castor oil mixture, 14 °C, 2% benzyl alcohol, 20% benzyl benzoate, 78% castor oil, 14 °C, average of three measurements, read-out: Solubility CASTOR
[8] = benzyl alcohol / benzyl benzoate / cottonseed oil mixture, 14 °C, 2% benzyl alcohol, 20% benzyl benzoate, 78% cottonseed oil, 14 °C, average of three measurements, read-out: Solubility COTTON
[9] = benzyl alcohol / benzyl benzoate / grape seed oil mixture, 14 °C, 2% benzyl alcohol, 20% benzyl benzoate, 78% grape seed oil, 14 °C, average of three measurements, read-out: Solubility GSO
[10] = benzyl alcohol / benzyl benzoate / sesame oil mixture, 14 °C, 2% benzyl alcohol, 20% benzyl benzoate, 78% sesame oil, 14 °C, average of three measurements, read-out: Solubility SESAME
[11] = esterified form, intramuscular or subcutaneous injection

Compound | solubility [1, 4] [mg/mL] | solubility [1, 5] [mg/mL] | solubility [1, 6] [mg/mL] | solubility [1, 7] [mg/mL] | solubility [1, 8] [mg/mL] | solubility [1, 9] [mg/mL] | solubility [1, 10] [mg/mL] | Solubility, averaging [2] [mg/mL] | Half-life [3, 11] | also measured
CCCCCCCCCC(=O)OC1CCC2C3CCC4=CC(=O)CCC4(C)C3CCC12C (stereo not drawn) [TDec, Androst-4-en-17β-ol-3-one 17β-decanoate] | 597 (≈ 1350 mM) | 534 (≈ 1210 mM) | 537 (≈ 1210 mM) | 530 (≈ 1200 mM) | 496 (≈ 1120 mM) | 497 (≈ 1120 mM) | 549 (≈ 1240 mM) | – | – | Solubility fold greater than the other esters ([1]; TDec compared with TCyp and TUnd, average solubility): 2.5–3 fold
C[C@]12CC[C@H]3[C@@H](CCC4=CC(=O)CC[C@@]43C)[C@@H]1CC[C@@H]2OC(=O)CCC1CCCC1 [TCyp, Androst-4-en-17β-ol-3-one 17β-cyclopentylpropionate] | 257 (≈ 623 mM) | ~255 (≈ 618 mM) | 238 (≈ 576 mM) | 287 (≈ 695 mM) | 236 (≈ 573 mM) | 239 (≈ 580 mM) | 278 (≈ 674 mM) | – | – | –
CC(C)CCC(=O)O[C@H]1CC[C@H]2[C@@H]3CCC4=CC(=O)CC[C@]4(C)[C@H]3CC[C@]12C [isocaproate] | – | – | – | – | – | – | – | 447 (≈ 1160 mM) | – | –
CC(=O)O[C@H]1CC[C@H]2[C@@H]3CCC4=CC(=O)CC[C@]4(C)[C@H]3CC[C@]12C [testosterone acetate] | – | – | – | – | – | – | – | 110 | less than 24 h | –
C[C@]12CC[C@H]3[C@@H](CCC4=CC(=O)CC[C@@]43C)[C@@H]1CC[C@@H]2O [Testosterone, 17β-Hydroxyandrost-4-en-3-one] | – | – | – | – | – | – | – | – | – | Half-life ([3]; non-esterified testosterone): a few hours
Androst-4-en-17β-ol-3-one 17β-undecanoate [TUnd] | – | – | – | – | – | – | – | – | up to 36 days | Solubility APRICOT ([1]; 2% benzyl alcohol, 20% benzyl benzoate, 78% apricot oil, 14 °C, average of three measurements): 200.1 mg/mL; Solubility CASTOR ([1]; 2% benzyl alcohol, 20% benzyl benzoate, 78% castor oil, 14 °C, average of three measurements): 196.3 mg/mL; Solubility COTTON ([1]; 2% benzyl alcohol, 20% benzyl benzoate, 78% cottonseed oil, 14 °C, average of three measurements): 195.5 mg/mL; Solubility GSO ([1]; 2% benzyl alcohol, 20% benzyl benzoate, 78% grape seed oil, 14 °C, average of three measurements): 183.1 mg/mL; Solubility MCT ([1]; 2% benzyl alcohol, 20% benzyl benzoate, 78% medium-chain triglyceride, 14 °C, average of three measurements): 201.8 mg/mL; Solubility SESAME ([1]; 2% benzyl alcohol, 20% benzyl benzoate, 78% sesame oil, 14 °C, average of three measurements): 209.1 mg/mL; Average solubility ([1]; average over the six oil mixtures, 14 °C): roughly 197 mg/mL
